Assay results: patent publication US12478617B2, “Lipidated peptide inhibitors of interleukin-23 receptor” (JANSSEN BIOTECH, INC., priority 2021, dated 2025)
Where two headings read alike, the source gives them in different places. Starred links: 1 amine or outer side, 2 acyl side, 3 side chain; linkers in the order of their positions; H or OH if unused. Positions of bridges follow the written chain, without caps; N, C: chain ends. Non-standard residues stand in square brackets, D forms with d. Residues, ends and D or L forms follow the SMILES beside them. Groups on a side chain read outwards from the residue. *: point of attachment. X2 = C[N+](C)(CCNC(=O)COCCOCCNC(=O)COCCOCCNC(=O)CC[C@H](NC(=O)CCCCCCCCCCCCCCCCC(=O)O)C(=O)O)CC(=O)*; Trp(7-Me) = Cc1cccc2c(C[C@H](N)C(=O)O)c[nH]c12; C18 diacid = O=C(O)CCCCCCCCCCCCCCCCC(=O)*; γGlu = O=C(O)[C@H](CCC(=O)[*:2])N[*:1]; 2Nal = N[C@@H](Cc1ccc2ccccc2c1)C(=O)O; AEF = NCCOc1ccc(C[C@H](N)C(=O)O)cc1; PEG6 = NCCOCCOCCOCCOCCOCCOCCC(=O)O; 3Pal = N[C@@H](Cc1cccnc1)C(=O)O; Pen = CC(C)(S)[C@H](N)C(=O)O; Thp = NC1(C(=O)O)CCOCC1; AEEA = NCCOCCOCC(=O)O; Sar = CNCC(=O)O

Experiments:
[1] = disulfide bond, 20-membered ring, I2/AcOH, ACN/H2O
IL-23R = target: T1, IL-23R (Homo sapiens, UniProt Q5VWK5); test: IL23R Reporter Assay; format: cell-based
T1 construct: HEK293 cells containing IL-23R, IL-12RP31 and a firefly luciferase reporter gene driven by a STAT-inducible promoter (Promega); host or cells: HEK293
T1 sequence (Q5VWK5 24-629): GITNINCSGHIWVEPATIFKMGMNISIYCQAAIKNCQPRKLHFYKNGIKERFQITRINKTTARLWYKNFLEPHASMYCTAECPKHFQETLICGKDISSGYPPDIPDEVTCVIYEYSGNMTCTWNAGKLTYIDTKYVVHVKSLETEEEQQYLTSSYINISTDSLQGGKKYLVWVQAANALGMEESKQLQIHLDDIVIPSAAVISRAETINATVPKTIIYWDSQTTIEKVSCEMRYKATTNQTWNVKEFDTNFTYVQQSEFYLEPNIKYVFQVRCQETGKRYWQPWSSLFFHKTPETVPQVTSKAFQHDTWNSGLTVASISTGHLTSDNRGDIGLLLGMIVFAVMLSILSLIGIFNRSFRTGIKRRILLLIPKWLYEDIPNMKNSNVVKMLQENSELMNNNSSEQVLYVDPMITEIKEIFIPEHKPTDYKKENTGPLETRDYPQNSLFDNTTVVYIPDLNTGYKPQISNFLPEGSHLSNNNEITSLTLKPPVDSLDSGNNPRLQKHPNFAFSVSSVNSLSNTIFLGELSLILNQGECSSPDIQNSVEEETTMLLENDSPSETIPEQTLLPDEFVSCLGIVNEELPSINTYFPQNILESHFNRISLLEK
Method in brief: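 Reporter cells read out IL-23-driven STAT3 activation; compounds were serially diluted in DMSO. After 5 h at 37 °C, 5% CO2, cells were brought to 20 °C and luminescence was measured with BioGlo reagent.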

Work on `CC(=O)NCCCC[C@@H]1NC(=O)[C@H](Cc2c[nH]c3c(C)cccc23)NC(=O)[C@H]([C@@H](C)O)NC(=O)[C@H](CC(N)=O)NC(=O)[C@@H](NC(=O)[C@@H](CCCCNC(=O)COCCOCCNC(=O)COCCOCCNC(=O)C[N+](C)(C)CCNC(=O)CC[C@H](NC(=O)CCCCCCCCCCCCCCCCC(=O)O)C(=O)O)NC(C)=O)C(C)(C)SSC(C)(C)[C@@H](C(=O)N[C@@H](Cc2ccc(OCCN)cc2)C(=O)N[C@@H](Cc2ccc3ccccc3c2)C(=O)NC2(C(=O)N[C@@H](CCCCNC(C)=O)C(=O)N[C@@H](CC(N)=O)C(=O)N[C@@H](Cc3cccnc3)C(=O)N(C)CC(N)=O)CCOCC2)NC1=O` yielded a ring closure, yield after HPLC ([1]; from Ac-dLys(PEG2PEG2SP6gEC18OH)-Pen-Asn-Thr-7MeTrp-Lys(Ac)-Pen-AEF-2Nal-THP-Lys(Ac)-Asn-3Pya-Sar-NH2, 0.343 mM) of 35%.

`CC(=O)NCCCC[C@@H]1NC(=O)[C@H](Cc2c[nH]c3c(C)cccc23)NC(=O)[C@H]([C@@H](C)O)NC(=O)[C@H](CC(N)=O)NC(=O)[C@@H](NC(C)=O)C(C)(C)SSC(C)(C)[C@@H](C(=O)N[C@@H](Cc2ccc(OCCN)cc2)C(=O)N[C@@H](Cc2ccc3ccccc3c2)C(=O)NC2(C(=O)N[C@@H](CCCCNC(=O)COCCOCCNC(=O)COCCOCCNC(=O)CC[C@H](NC(=O)CCCCCCCCCCCCCCCCC(=O)O)C(=O)O)C(=O)N[C@@H](CC(N)=O)C(=O)N[C@@H](Cc3cccnc3)C(=O)N(C)CC(N)=O)CCOCC2)NC1=O` showed a ring closure, yield after HPLC ([1]; from Ac-Pen-Asn-Thr-7MeTrp-Lys(Ac)-Pen-AEF-2Nal-THP-Lys(PEG2PEG2gEC18OH)-Asn-3Pya-Sar-NH2, 0.382 mM) of 24%.

For “MeCO-k(PEG2PEG2gE(c)C180H)-Pen*-N-T-7MeW-K(Ac)-Pen*-AEF-2Nal-THP—K(Ac)-N-3Pya-Sar-CONH2”, the ring closure, yield after HPLC ([1]; ascorbic acid quench, 0.34 mM) was 20%.

For `CC(=O)NCCCC[C@@H]1NC(=O)[C@H](Cc2c[nH]c3c(C)cccc23)NC(=O)[C@H]([C@@H](C)O)NC(=O)[C@H](CC(N)=O)NC(=O)[C@@H](NC(C)=O)C(C)(C)SSC(C)(C)[C@@H](C(=O)N[C@@H](Cc2ccc(OCCN)cc2)C(=O)N[C@@H](Cc2ccc3ccccc3c2)C(=O)NC2(C(=O)N[C@@H](CCCCNC(=O)COCCOCCNC(=O)COCCOCCNC(=O)CC[C@H](NC(=O)[C@H](CNC(=O)CCCCCCCCCCCCCCC(=O)O)NC(=O)CCCCCCCCCCCCCCC(=O)O)C(=O)O)C(=O)N[C@@H](CC(N)=O)C(=O)N[C@@H](Cc3cccnc3)C(=O)N(C)CC(N)=O)CCOCC2)NC1=O` [Example 116, MeCO-Pen*-N-T-7MeW-K(Ac)-Pen*-AEF-2Nal-THP-K(PEG2PEG2gE-DAP(C16OH)2)-N-3Pya-Sar-CONH2], the IC50 (IL-23R) was 0.15 nM.

In the case of `CC(=O)NCCCC[C@@H]1NC(=O)[C@H](Cc2c[nH]c3c(C)cccc23)NC(=O)[C@H]([C@@H](C)O)NC(=O)[C@H](CC(N)=O)NC(=O)[C@@H](NC(C)=O)C(C)(C)SSC(C)(C)[C@@H](C(=O)N[C@@H](Cc2ccc(OCCN)cc2)C(=O)N[C@@H](Cc2ccc3ccccc3c2)C(=O)NC2(C(=O)N[C@@H](CCCCNC(=O)C[N+](C)(C)CCNC(=O)COCCOCCNC(=O)COCCOCCNC(=O)CC[C@H](NC(=O)CCCCCCCCCCCCCCCCC(=O)O)C(=O)O)C(=O)N[C@@H](CC(N)=O)C(=O)N[C@@H](Cc3cccnc3)C(=O)N(C)CC(N)=O)CCOCC2)NC1=O` [Example 124, MeCO-Pen*-N-T-7MeW-K(Ac)-Pen*-AEF-2Nal-THP-K(SP6 PEG2PEG2gE C18OH)-N-3Pya-Sar-CONH2] (Ac-[Pen]NT[Trp(7-Me)]K(Ac)[Pen][AEF][2Nal][Thp]K(X2)N[3Pal][Sar]-NH2; disulfide 1-6), the IC50 (IL-23R) is reported as 0.083 nM.

Molecule `CC(=O)NCCCC[C@@H]1NC(=O)[C@H](Cc2c[nH]c3c(C)cccc23)NC(=O)[C@H]([C@@H](C)O)NC(=O)[C@H](CC(N)=O)NC(=O)[C@@H](NC(C)=O)C(C)(C)SSC(C)(C)[C@@H](C(=O)N[C@@H](Cc2ccc(OCCN)cc2)C(=O)N[C@@H](Cc2ccc3ccccc3c2)C(=O)NC2(C(=O)N[C@@H](CCCCNC(=O)CCOCCOCCOCCOCCOCCOCCNC(=O)CCOCCOCCOCCOCCOCCOCCNC(=O)CC[C@H](NC(=O)CCCCCCCCCCCCCCCCC(=O)O)C(=O)O)C(=O)N[C@@H](CC(N)=O)C(=O)N[C@@H](Cc3cccnc3)C(=O)N(C)CC(N)=O)CCOCC2)NC1=O` [Example 43, MeCO-Pen*-N-T-7MeW-K(Ac)-Pen*-AEF-2Nal-THP-K(PEG6PEG6gEC18OH)-N-3Pya-Sar-CONH2] (Ac-[Pen]NT[Trp(7-Me)]K(Ac)[Pen][AEF][2Nal][Thp]K([PEG6-PEG6-γGlu-C18 diacid])N[3Pal][Sar]-NH2; disulfide 1-6) has an IC50 (IL-23R) of 0.049 nM.

Molecule `CC(=O)NCCCC[C@@H]1NC(=O)[C@H](Cc2c[nH]c3c(C)cccc23)NC(=O)[C@H]([C@@H](C)O)NC(=O)[C@H](CCCCNC(=O)CCOCCOCCOCCOCCOCCOCCNC(=O)CC[C@H](NC(=O)CCCCCCCCCCCCCCCCC(=O)O)C(=O)O)NC(=O)[C@@H](NC(=O)[C@@H](CCCNC(=N)N)NC(C)=O)C(C)(C)SSC(C)(C)[C@@H](C(=O)N[C@@H](Cc2ccc(OCCN)cc2)C(=O)N[C@@H](Cc2ccc3ccccc3c2)C(=O)NC2(C(=O)N[C@@H](CCCCNC(C)=O)C(=O)N[C@@H](CC(N)=O)C(=O)N[C@@H](Cc3cccnc3)C(=O)N(C)CC(N)=O)CCOCC2)NC1=O` [Example 63, MeCO-r-Pen*-K(PEG6gEC18OH)-T-7MeW-K(Ac)-Pen*-AEF-2Nal-THP-K(Ac)-N-3Pya-Sar-CONH2] (Ac-[dR][Pen]K([PEG6-γGlu-C18 diacid])T[Trp(7-Me)]K(Ac)[Pen][AEF][2Nal][Thp]K(Ac)N[3Pal][Sar]-NH2; disulfide 2-7) has an IC50 (IL-23R) of 0.13 nM.

Work on `CC(=O)NCCCC[C@@H]1NC(=O)[C@H](Cc2c[nH]c3c(C)cccc23)NC(=O)[C@H]([C@@H](C)O)NC(=O)[C@H](CC(N)=O)NC(=O)[C@@H](NC(=O)[C@@H](CCCCNC(=O)CCOCCOCCOCCOCCOCCOCCNC(=O)CC[C@H](NC(=O)CCCCCCCCCCCCCCCCC(=O)O)C(=O)O)NC(C)=O)C(C)(C)SSC(C)(C)[C@@H](C(=O)N[C@@H](Cc2ccc(OCCN)cc2)C(=O)N[C@@H](Cc2ccc3ccccc3c2)C(=O)NC2(C(=O)N[C@@H](CCCCNC(C)=O)C(=O)N[C@@H](CC(N)=O)C(=O)N[C@@H](Cc3cccnc3)C(=O)N(C)CC(N)=O)CCOCC2)NC1=O` [Example 60, MeCO-k(PEG6 gE C18OH)-Pen*-N-T-7MeW-K(Ac)-Pen*-AEF-2Nal-THP-K(Ac)-N-3Pya-Sar-CONH2] (Ac-[dK]([PEG6-γGlu-C18 diacid])[Pen]NT[Trp(7-Me)]K(Ac)[Pen][AEF][2Nal][Thp]K(Ac)N[3Pal][Sar]-NH2; disulfide 2-7) yielded an IC50 (IL-23R) of 0.042 nM.

In the case of `CC(=O)NCCCC[C@@H]1NC(=O)[C@H](Cc2c[nH]c3c(C)cccc23)NC(=O)[C@H]([C@@H](C)O)NC(=O)[C@H](CCCCNC(=O)COCCOCCNC(=O)COCCOCCNC(=O)CC[C@H](NC(=O)CCCCCCCCCCCCCCCCC(=O)O)C(=O)O)NC(=O)[C@@H](NC(=O)[C@@H](CCCNC(=N)N)NC(C)=O)C(C)(C)SSC(C)(C)[C@@H](C(=O)N[C@@H](Cc2ccc(OCCN)cc2)C(=O)N[C@@H](Cc2ccc3ccccc3c2)C(=O)NC2(C(=O)N[C@@H](CCC(=O)O)C(=O)N[C@@H](CC(N)=O)C(=O)N[C@@H](Cc3cccnc3)C(=O)N(C)CC(N)=O)CCOCC2)NC1=O` [Example 20, MeCO-r-Pen*-K(PEG2PEG2gEC18OH)-T-7MeW-K(Ac)-Pen*-AEF-2Nal-THP-E-N-3Pya-Sar-CONH2] (Ac-[dR][Pen]K([AEEA-AEEA-γGlu-C18 diacid])T[Trp(7-Me)]K(Ac)[Pen][AEF][2Nal][Thp]EN[3Pal][Sar]-NH2; disulfide 2-7), the IC50 (IL-23R) is reported as 0.067 nM.
